The values that follow come from PMC10451629, “Evaluation of the Effects of Heteroaryl Ethylene Molecules in Combination with Antibiotics: A Preliminary Study on Control Strains” (Antibiotics, 2023).

Experiment [1] relates to E. faecalis ATCC 29212. Kind of experiment: Broth microdilution MIC. The experiment is classed as cell-based, Enterococcus faecalis. As to conditions: for MIC: Enterococcus faecalis, ATCC29212, E. faecalis ATCC 29212. In general terms: Broth dilution looks for growth in wells or tubes with falling amounts of substance.
For experiment [2], the system named is E. coli ATCC 25922. Put plainly: Broth microdilution MIC. The experiment is classed as cell-based. As to conditions: Escherichia coli.
Experiment [3] concerns Gram-negative bacteria. Kind of experiment: Broth microdilution MIC, summary over Gram-negative bacteria. Format: cell-based. The note with it: summary in text over Gram-negative bacteria.
The subject of experiment [4] is P. aeruginosa ATCC 27853. Kind of experiment: Broth microdilution MIC. The experiment is classed as cell-based, Pseudomonas aeruginosa. As to conditions: for MIC: Pseudomonas aeruginosa, ATCC27853, P. aeruginosa ATCC 27853.
Experiment [5] relates to CaCo-2 (ATCC HTB-37) colon–rectal cancer cell line. Kind of experiment: MTT cytotoxicity assay on CaCo-2 cells. Format: cell-based, human. As to conditions: for IC50: Homo sapiens; for Percentage of cell growth, antibiotic / Percentage of cell growth, antibiotic + PB4 0.2 µM: CaCo-2. The protocol:
To fully assess the biological activity of the new molecules, they were tested at different concentrations on the CaCo-2 (ATCC HTB-37) colon–rectal cancer cell line. These human cancer cells were exposed to compound solutions ranging in concentration from 100 µM to 0.01 µM. As a reference compound for these assays, we used 5-Fluorouracil (5-FU), a pyrimidine analog from the antimetabolite family.
The MTT assay was also performed for the selected antibiotics to evaluate the effect of their combined treatment with PB4.
To evaluate the effect of the heteroaryl ethylene compounds and the antibiotics, an MTT ([3-(4,5-dimethylthiazol-2-yl)-2,5-diphenyltetrazolium bromide]) assay was performed as previously described. […] Both concentrations were also tested in combination with PB4 0.2 µM. All antibiotics were provided by Thermo Scientific^TM Oxoid^TM, Basingstoke, UK. Twenty-four hours after plating, the cells were treated with 20 μL of each solution. Untreated cells were used as controls. […] The IC50 values were calculated by nonlinear regression analysis using GraphPad Prism 6.0 software.
Background: Formazan colour is commonly taken as a measure of viable cells.

Experiment [6] concerns S. aureus ATCC BAA-1556 USA300. Kind of experiment: Broth microdilution MIC. Format: cell-based, Staphylococcus aureus. The note with it: Staphylococcus aureus, S. aureus ATCC BAA-1556 USA300; substance alone.
Experiment [7] concerns S. enterica ATCC 14028. Kind of experiment: Broth microdilution MIC. Format: cell-based. The note with it: Salmonella enterica, ATCC14028, substance alone.
In experiment [8] the test system is S. aureus ATCC 12598. Put plainly: Broth microdilution MIC. The note with it: Staphylococcus aureus, ATCC12598, S. aureus ATCC 12598; substance alone; read-out: MIC. The experiment is classed as cell-based, Staphylococcus aureus.
Experiment [9] has as its system Gram-positive strains. Kind of experiment: Broth microdilution MIC, summary over Gram-positive strains. The experiment is classed as cell-based.
Experiment [10] relates to S. aureus ATCC 29213. Kind of experiment: Broth microdilution MIC. The experiment is classed as cell-based. As to conditions: Staphylococcus aureus, ATCC29213, S. aureus ATCC 29213.
Experiment [11] deals with K. pneumoniae ATCC 700603. Put plainly: Broth microdilution MIC. The experiment is classed as cell-based, Klebsiella pneumoniae. The note with it: for MIC: Klebsiella pneumoniae, ATCC700603, K. pneumoniae ATCC 700603, substance alone, read-out: MIC.
Experiment [12] relates to A. baumannii ATCC 17978. Put plainly: Broth microdilution MIC. Format: cell-based. As to conditions: Acinetobacter baumannii, ATCC17978, substance alone.
Experiment [13] deals with S. aureus ATCC 29213. On the set-up: method as in earlier work. As to conditions: quality control range, ref CLSI; cited from earlier work.
For experiment [14], the system named is E. coli ATCC 25922. More on the design: method as in earlier work. As to conditions: quality control range, ref CLSI; cited from earlier work.
Experiment [15] deals with E. faecalis ATCC 29212. More on the design: method as in earlier work. The note with it: quality control range, ref CLSI; cited from earlier work.
The subject of experiment [16] is P. aeruginosa ATCC 27853. On the set-up: method as in earlier work. The note with it: quality control range, ref CLSI; cited from earlier work.
[17] abbreviates: ATCC25922, substance alone, read-out: MIC.
Setting [18] is: quality control strain, technical positive control, read-out: MIC (quality control).

≈ marks a conversion by molar mass, not a printed value. Where “and” joins values, the source holds several entries; their conditions need not be identical. Equal entries are not always repeated. Where two headings read alike, the source gives them in different places. Where only a bound is given, the exact number is not on record here.

One may read the MIC as the smallest concentration in the dilution series that meets the test's criterion for growth inhibition. A word on the IC50: it is the concentration at which inhibition is half-maximal. As for `C[n+]1c(/C=C/c2ccc(-c3cccs3)s2)cccc1/C=C/c1ccc(-c2cccs2)s1` [GC-VI-70], the MIC was 2 µg/mL and 3.32 µM in [1] (substance alone, read-out: MIC); 128 µg/mL and 213 µM in experiment [2] (setting [17]); > 128 µg/mL and > 213 µM in experiment [4] (substance alone, read-out: MIC); 4 µg/mL and 6.65 µM in [6]; > 128 µg/mL and > 213 µM in experiment [7]; 16 µg/mL and 26.6 µM in experiment [8]. The MIC in experiment [9] is 2 to 16 µg/mL; in experiment [10] (substance alone, read-out: MIC), 16 µg/mL and 26.6 µM; in experiment [11], > 128 µg/mL and > 213 µM; in experiment [12], 32 µg/mL and 53.2 µM. For the same compound, the “MIC values for Gram-negative bacteria” value in experiment [3] is on record as “high MIC values”. Further, the IC50 was 940 nM in experiment [5] (Caco-2, 24 h, CaCo-2 cell line, MTT, 24 h of treatment, read-out: IC50 at 24 h); 3760 nM in [5] (Caco-2, 48 h, CaCo-2 cell line, MTT, 48 h of treatment, read-out: IC50 at 48 h); 320 nM in experiment [5] (Caco-2, CaCo-2 cells, time not given, read-out: IC50 value on CaCo-2 cells).
On to `CNC(C)C1CCC(N)C(OC2C(N)CC(N)C(OC3OCC(C)(O)C(NC)C3O)C2O)O1` (stereo not drawn) [Gentamicin, gentamicin, reference compound], for which the “Reduction of antibiotic MIC by PB4” value in experiment [1] (E. faecalis ATCC 29212, antibiotic + PB4 vs antibiotic alone) is reported as 2 -fold log reduction; in experiment [4] (P. aeruginosa ATCC 27853, antibiotic + PB4 vs antibiotic alone) it was 2 -fold log MIC reductions; in [11] (K. pneumoniae ATCC 700603, antibiotic + PB4 vs antibiotic alone), 2 -fold log MIC reductions. In addition, the MIC in [1] (setting [18]) is 8 µg/mL (≈ 16.8 µM); in [1] (substance alone, read-out: MIC), 4 µg/mL (≈ 8.38 µM); in [2] (ATCC25922, quality control strain, technical positive control, read-out: MIC (quality control)), 0.5 µg/mL (≈ 1.05 µM); in experiment [2] (setting [17]), 0.5 µg/mL (≈ 1.05 µM); in experiment [4] (setting [18]) it was 2 µg/mL (≈ 4.19 µM); in experiment [4] (substance alone, read-out: MIC), 2 µg/mL (≈ 4.19 µM). The MIC in experiment [6] is 0.5 µg/mL (≈ 1.05 µM); in [7], 1 µg/mL (≈ 2.09 µM); in experiment [8], 0.5 µg/mL (≈ 1.05 µM); in [10] (setting [18]), 0.5 µg/mL (≈ 1.05 µM); in experiment [10] (substance alone, read-out: MIC), 0.5 µg/mL (≈ 1.05 µM); in experiment [11] it was 8 µg/mL (≈ 16.8 µM). Also, the MIC in [12] was found to be 2 µg/mL (≈ 4.19 µM). Further, the “Percentage of cell growth, antibiotic” value worked out at 158.2% in experiment [5] (antibiotic alone at MIC for E. faecalis ATCC 29212, 24 h); 247.5% in experiment [5] (antibiotic alone at MIC for E. faecalis ATCC 29212, 48 h); 132.3% in experiment [5] (antibiotic alone at sub-MIC (half-MIC), 24 h); 271.7% in experiment [5] (antibiotic alone at sub-MIC (half-MIC), 48 h). The “Percentage of cell growth, antibiotic + PB4 0.2 µM” value in experiment [5] (antibiotic at MIC + PB4 0.2 µM, 24 h) worked out at 125.6%; in experiment [5] (antibiotic at MIC + PB4 0.2 µM, 48 h), 141.1%; in experiment [5] (antibiotic at sub-MIC + PB4 0.2 µM, 24 h), 132.4%; in experiment [5] (antibiotic at sub-MIC + PB4 0.2 µM, 48 h) it was 99.2%. Also, the “MIC CLSI Range” value is 0.125 to 1 µg/mL in experiment [13], 0.25 to 1 µg/mL in experiment [14], 4 to 16 µg/mL in [15] and 0.5 to 2 µg/mL in experiment [16].
